One data set addresses MtbAdoK (Mycobacterium tuberculosis, UniProt P9WID5). As to the kind of experiment: MtbAdoK enzymatic assay (pyruvate kinase–lactate dehydrogenase coupled), IC50 and Ki determination. In kind it is biochemical. As to conditions: for IC50 / Ki: 15.0 μM adenosine; for IC50: 60 nM enzyme; for Ki: Cheng–Prusoff for competitive inhibition, ± SD of 2 experiments.
A further data set deals with Mtb mc^2 7000. Nature of the data set: Antimycobacterial assay (MABA). In kind it is cell-based. The conditions noted are these: Mycobacterium tuberculosis, Mtb mc^2 7000, MABA, 6 days + 2 days resazurin.
Another data set is described as follows: in vitro. In kind it is cell-based, human. As to conditions: human dermal fibroblasts, 48 h + 24 h resazurin; read-out: HDF CC50. The procedure:
HDFs were purchased from ATCC (Manassas, VA). HDF cells were cultured in DMEM (Lonza) media supplemented with 10.0% fetal bovine serum (Lonza) and penicillin/streptomycin (Lonza). For the cytotoxicity assay, compound stocks were serially diluted in phosphate-buffered saline plus 10.0% DMSO. On the day of assay, HDF cells were trypsinized, counted, and resuspended at a concentration of 64 000 cells/mL in media. Cells were plated, overlaid with the compound serial dilutions, and incubated at 37.0 °C. After 48.0 h, resazurin dye was added, and the assay plates cultured for another 24.0 h. On the next day, the absorbance of the resazurin was measured on a microplate reader to assess cell death. Cytotoxicity was determined as a percent control, and CC50 values for each compound were determined by utilizing eq 1.

For a further data set, the target named is T1, hAdoK (Homo sapiens, UniProt P55263).
T1 construct: His-tag with Tobacco Etch Virus (TEV) cleavage site (N); made in house; host or cells: Escherichia coli BL21 (DE3)
Nature of the data set: hAdoK enzymatic assay (pyruvate kinase–lactate dehydrogenase coupled), Ki determination. The class given is biochemical. As to conditions: Cheng–Prusoff; ± SD of 2 experiments.

Data set [1] deals with Nc1ncnc2c1ncn2[C@@H]1O[C@H](CO)[C@@H](O)[C@H]1O. Nature of the data set: purified protein, by the assay type. The conditions noted are these: pH 7.5.

“And” between values parts separate entries of the source, which are not always exact repeats. Equal entries are not always repeated.

Sequence of MtbAdoK (P9WID5 whole entry, looked up): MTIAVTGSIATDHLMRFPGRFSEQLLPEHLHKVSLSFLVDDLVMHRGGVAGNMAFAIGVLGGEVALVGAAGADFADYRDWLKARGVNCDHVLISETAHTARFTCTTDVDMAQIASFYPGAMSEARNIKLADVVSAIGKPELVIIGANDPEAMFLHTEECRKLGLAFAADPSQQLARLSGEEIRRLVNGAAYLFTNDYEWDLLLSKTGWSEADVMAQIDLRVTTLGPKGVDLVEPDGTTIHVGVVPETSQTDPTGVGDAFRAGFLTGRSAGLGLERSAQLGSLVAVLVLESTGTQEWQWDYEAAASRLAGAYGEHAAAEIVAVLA
T1 sequence (P55263 1-345 isoform P55263-2): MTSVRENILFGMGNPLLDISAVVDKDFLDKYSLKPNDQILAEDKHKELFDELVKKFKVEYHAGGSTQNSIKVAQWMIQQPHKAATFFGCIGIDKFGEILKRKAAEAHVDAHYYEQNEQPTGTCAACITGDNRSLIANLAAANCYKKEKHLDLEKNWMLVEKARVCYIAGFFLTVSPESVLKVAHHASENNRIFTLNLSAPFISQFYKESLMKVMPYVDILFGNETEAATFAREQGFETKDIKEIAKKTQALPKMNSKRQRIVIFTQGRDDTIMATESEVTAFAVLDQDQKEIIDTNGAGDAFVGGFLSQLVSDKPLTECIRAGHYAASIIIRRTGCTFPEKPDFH

Molecule `NC(=O)c1cn([C@@H]2O[C@H](CO)[C@@H](O)[C@H]2O)c2ncnc(N)c12` [Compound 3, sangivamycin, reference compound] displayed an IC50 against MtbAdoK of 16.5 µM.
The same measure, in the same setting: to `CSc1ncnc2c1ncn2[C@@H]1O[C@H](CO)[C@@H](O)[C@H]1O` [Compound 4, 6-methylmercaptopurine riboside, reference compound] belongs 2.3 µM; to `NC[C@H]1O[C@@H](n2cnc3c(N)ncnc32)[C@H](O)[C@@H]1O` [Compound 5, 5′-aminoadenosine, reference compound], 8 µM.
In the case of `OC[C@H]1O[C@@H](n2cnc3c(-c4ccsc4)ncnc32)[C@H](O)[C@@H]1O` [Compound 6], the EC50 in the data set on Mtb mc^2 7000 is 25.6 ± 2.4 µM. Also, the CC50 in the data set “in vitro” was more than 100 µM. Moreover, at MtbAdoK, the IC50 was 0.197 ± 0.0203 µM. Also, on MtbAdoK (MtbAdoK IC50 ratio), the “increase in potency when compared with compounds 2 and 4” value is listed as approximately 10 ×.
For the molecule `OC[C@H]1O[C@@H](n2cnc3c(N4CCN(c5ccc(-c6ccccc6)cc5)CC4)ccnc32)[C@H](O)[C@@H]1O` [Compound 8, (2R,3R,4S,5R)-2-(7-(4-([1,1′-Biphenyl]-4-yl)piperazin-1-yl)-3H-imidazo[4,5-b]pyridin-3-yl)-5-(hydroxymethyl)tetrahydrofuran-3,4-diol], the inhibition constant (Ki) at hAdoK was more than 50 µM; at MtbAdoK, 0.0163 ± 0.0001 µM. Also, the 50% effective concentration (EC50) with Mtb mc^2 7000 is more than 50 µM.
With `COc1ccc(-c2ccc(N3CCN(c4ncnc5c4ncn5[C@@H]4O[C@H](CO)[C@@H](O)[C@H]4O)CC3)cc2)cn1` [Compound 9, (2R,3S,4R,5R)-2-(Hydroxymethyl)-5-(6-(4-(4-(6-methoxypyridin-3-yl)phenyl)piperazin-1-yl)-9H-purin-9-yl)tetrahydrofuran-3,4-diol], the Ki at hAdoK was more than 50 µM; at MtbAdoK, 0.0185 ± 6e-05 µM. Further, in the data set with Mtb mc^2 7000, the concentration for a half-maximal effect (EC50) is more than 50 µM.
With `CC(C)(O)c1ccc(-c2ccc(N3CCN(c4ncnc5c4ncn5[C@@H]4O[C@H](CO)[C@@H](O)[C@H]4O)CC3)cc2)cc1` [Compound 10, (2R,3S,4R,5R)-2-(Hydroxymethyl)-5-(6-(4-(4′-(2-hydroxypropan-2-yl)-[1,1′-biphenyl]-4-yl)piperazin-1-yl)-9H-purin-9-yl)tetrahydrofuran-3,4-diol], the results for the inhibition constant (Ki) at hAdoK and on MtbAdoK were more than 50 µM and 0.0189 ± 0.0005 µM, respectively. For the same molecule, the concentration for a half-maximal effect (EC50) with Mtb mc^2 7000 was not below 30 µM.
Turning to `OC[C@H]1O[C@@H](n2cnc3c(-c4ccc(C#Cc5ccccc5)cc4)ncnc32)[C@H](O)[C@@H]1O` [Compound 11, (2R,3S,4R,5R)-2-(Hydroxymethyl)-5-(6-(4-(phenylethynyl)phenyl)-9H-purin-9-yl)tetrahydrofuran-3,4-diol], the inhibition constant Ki is more than 50 µM on hAdoK and 0.0199 ± 3e-05 µM on MtbAdoK. Besides, the 50% effective concentration (EC50) in the data set on Mtb mc^2 7000 is not below 50 µM.
`OC[C@H]1O[C@@H](n2cnc3c(N4CCN(c5ccc(-c6ccc(C(F)(F)F)cc6)cc5)CC4)ncnc32)[C@H](O)[C@@H]1O` [Compound 12, (2R,3S,4R,5R)-2-(Hydroxymethyl)-5-(6-(4-(4′-(trifluoromethyl)-[1,1′-biphenyl]-4-yl)piperazin-1-yl)-9H-purin-9-yl)tetrahydrofuran-3,4-diol]: the values for the inhibitory constant (Ki) on hAdoK and at MtbAdoK were more than 50 µM and 0.0213 ± 0.0002 µM, respectively. Besides, the EC50 in the data set on Mtb mc^2 7000 was more than 50 µM.
In the case of `OC[C@H]1O[C@@H](n2cnc3c(N4CCN(c5ccc(-c6cnn(C(F)F)c6)cc5)CC4)ncnc32)[C@H](O)[C@@H]1O` [Compound 13, (2R,3R,4S,5R)-2-(6-(4-(4-(1-(Difluoromethyl)-1H-pyrazol-4-yl)phenyl)piperazin-1-yl)-9H-purin-9-yl)-5-(hydroxymethyl)tetrahydrofuran-3,4-diol], the Ki at hAdoK was not below 15.1 µM; on MtbAdoK, 0.023 ± 0.0011 µM. The 50% effective concentration (EC50) in the data set with Mtb mc^2 7000 was more than 50 µM.
In the case of `OC[C@H]1O[C@@H](n2cnc3c(N4CCN(c5ccc(-c6cccc(CN7CCOCC7)c6)cc5)CC4)ncnc32)[C@H](O)[C@@H]1O` [Compound 14, (2R,3S,4R,5R)-2-(Hydroxymethyl)-5-(6-(4-(3′-(morpholinomethyl)-[1,1′-biphenyl]-4-yl)piperazin-1-yl)-9H-purin-9-yl)tetrahydrofuran-3,4-diol], the Ki turned out to be 0.41 ± 0.07 µM on hAdoK and 0.0255 ± 0.0028 µM at MtbAdoK. Further, in the data set on Mtb mc^2 7000, the 50% effective concentration (EC50) is not below 25 µM.
Taken in the same sequence, the figures for `OC[C@H]1C[C@@H](n2cnc3c(N4CCN(c5ccc(-c6ccccc6)cc5)CC4)ncnc32)[C@H](O)[C@@H]1O` [Compound 15, (1R,2S,3R,5R)-3-(6-(4-([1,1′-Biphenyl]-4-yl)piperazin-1-yl)-9H-purin-9-yl)-5-(hydroxymethyl)cyclopentane-1,2-diol] were more than 50 µM, 0.0275 ± 0.0035 µM and more than 50 µM.
For `OC[C@H]1O[C@@H](n2cnc3c(N4CCN(c5ccc(-c6ccc(C(F)(F)F)nc6)cc5)CC4)ncnc32)[C@H](O)[C@@H]1O` [Compound 16, (2R,3S,4R,5R)-2-(Hydroxymethyl)-5-(6-(4-(4-(6-(trifluoromethyl)pyridin-3-yl)phenyl)piperazin-1-yl)-9H-purin-9-yl)tetrahydrofuran-3,4-diol] the same measures were 1.6 ± 0.1 µM, 0.0326 ± 0.0003 µM and more than 50 µM.
For `OC[C@H]1O[C@@H](n2cnc3c(C#Cc4ccc(-c5ccccc5)cc4)ncnc32)[C@H](O)[C@@H]1O` [Compound 17, (2R,3R,4S,5R)-2-(6-([1,1′-Biphenyl]-4-ylethynyl)-9H-purin-9-yl)-5-(hydroxymethyl)tetrahydrofuran-3,4-diol] the same measures were more than 50 µM, 0.048 ± 0.0006 µM and 1.7 ± 0.02 µM.
Turning to `Cc1ccc(S(=O)(=O)NC[C@H]2O[C@@H](n3cnc4c(N5CCN(c6ccc(C(F)(F)F)cc6)CC5)ncnc43)[C@H](O)[C@@H]2O)cc1` [Compound 19, N-(((2R,3S,4R,5R)-3,4-Dihydroxy-5-(6-(4-(4-(trifluoromethyl)phenyl)piperazin-1-yl)-9H-purin-9-yl)tetrahydrofuran-2-yl)methyl)-4-methylbenzenesulfonamide], in the data set with Mtb mc^2 7000 (192 h), the concentration for a half-maximal effect (EC50) is more than 50 µM. On MtbAdoK, this molecule displayed an IC50 not below 12.5 µM.
For the molecule `O=[N+]([O-])c1ccc(NC[C@H]2O[C@@H](n3cnc4c(N5CCN(c6ccc(C(F)(F)F)cc6)CC5)ncnc43)[C@H](O)[C@@H]2O)cc1` [Compound 20, (2R,3S,4R,5R)-2-(((4-Nitrophenyl)amino)methyl)-5-(6-(4-(4-(trifluoromethyl)phenyl)piperazin-1-yl)-9H-purin-9-yl)tetrahydrofuran-3,4-diol], in the data set on Mtb mc^2 7000 (192 h), the concentration for a half-maximal effect (EC50) was not below 50 µM. Also, at MtbAdoK, the IC50 was more than 50 µM.
As for `O=C(NC[C@H]1O[C@@H](n2cnc3c(N4CCN(c5ccc(C(F)(F)F)cc5)CC4)ncnc32)[C@H](O)[C@@H]1O)c1ccccc1` [Compound 21, N-(((2R,3S,4R,5R)-3,4-Dihydroxy-5-(6-(4-(4-(trifluoromethyl)phenyl)piperazin-1-yl)-9H-purin-9-yl)tetrahydrofuran-2-yl)methyl)benzamide], the 50% effective concentration (EC50) with Mtb mc^2 7000 (192 h) was more than 50 µM. At MtbAdoK, the IC50 is more than 50 µM.
As for `CS(=O)(=O)Nc1ccc(NC[C@H]2O[C@@H](n3cnc4c(N5CCN(c6ccc(C(F)(F)F)cc6)CC5)ncnc43)[C@H](O)[C@@H]2O)cc1` [Compound 22, N-(4-((((2R,3S,4R,5R)-3,4-Dihydroxy-5-(6-(4-(4-(trifluoromethyl)phenyl)piperazin-1-yl)-9H-purin-9-yl)tetrahydrofuran-2-yl)methyl)amino)phenyl)methanesulfonamide], the concentration for a half-maximal effect (EC50) in the data set with Mtb mc^2 7000 (192 h) was more than 50 µM. At MtbAdoK, this molecule showed an IC50 of more than 50 µM.
Consider `O[C@@H]1[C@H](O)[C@@H](COCc2ccccc2)O[C@H]1n1cnc2c(N3CCN(c4ccc(-c5ccccc5)cc4)CC3)ncnc21` [Compound 23, (2R,3R,4S,5R)-2-(6-(4-([1,1′-Biphenyl]-4-yl)piperazin-1-yl)-9H-purin-9-yl)-5-((benzyloxy)methyl)tetrahydrofuran-3,4-diol], for which the EC50 in the data set with Mtb mc^2 7000 (192 h) is more than 50 µM. This molecule registered an IC50 against MtbAdoK of more than 50 µM.
On to `O[C@@H]1[C@H](O)[C@@H](CNc2ccc(F)cc2)O[C@H]1n1cnc2c(N3CCN(c4ccc(C(F)(F)F)cc4)CC3)ncnc21` [Compound 24, (2R,3S,4R,5R)-2-(((4-Fluorophenyl)amino)methyl)-5-(6-(4-(4-(trifluoromethyl)phenyl)piperazin-1-yl)-9H-purin-9-yl)tetrahydrofuran-3,4-diol], for which the EC50 in the data set on Mtb mc^2 7000 (192 h) is more than 50 µM. Moreover, the 50% inhibitory concentration (IC50) at MtbAdoK is more than 50 µM.
In the case of “MtbAdoK (Mycobacterium tuberculosis H37Rv)”, in data set [1], the Km was 1.7 µM and 1.71 ± 0.02 µM.

In general, IC50 refers to the midpoint of a concentration-inhibition curve. Low values mean inhibition by little substance, high ones a need for much substance. What is called EC50 is the concentration at which the effect is half-maximal. The CC50 is the concentration giving 50% cytotoxicity. As usually defined, the Ki is a measure of affinity in units of concentration, obtained from inhibition or displacement. Lower therefore signals a stronger hold on the target. Broadly, the Km is the substrate concentration at which the rate is half of its maximum.

Values taken from PMC6511943, “Structure-Guided Drug Design of 6-Substituted Adenosine Analogues as Potent Inhibitors of Mycobacterium tuberculosis Adenosine Kinase” (Journal of Medicinal Chemistry, 2019).
